Results as given in patent US7030104B2, “Topical oestroprogestational compositions with a systemic effect” (Laboratoire Theramex, priority 2000, dated 2006).

Assays:
[1] = In vitro percutaneous passage on static diffusion cells (Franz cells), radiolabelled active ingredients; assay type: in vitro ADME, human; settings: 24 hours
Method: Percutaneous absorption is studied in vitro on static diffusion cells, called Franz cells™. The percutaneous passage of the active ingredients is evaluated by measuring the radioactivity using labelled molecules (carbon 14, tritium). The overall quantity of active ingredient absorbed is measured, at different times, in the receiving compartment.
A cutaneous biopsy is horizontally maintained between the two parts of the cell thus delimiting on both sides of the sample, two compartments: one of them epidermic, constituted by a glass cylinder, of a defined area (1.76 cm^2), placed on the upper surface of the skin; the other dermic (or receptor), on the underside of the biopsy, comprises a fixed volume reservoir with a side nozzle. The two compartments are kept in place through the intermediary of a clamp. […]
The preparations to be studied are applied in weighed quantities, using a spatula over all of the epidermal area circumscribed by the glass cone. […] The samples removed are treated with Pico-fluorine 40™ scintillation liquid and the activity measured using a liquid scintillation counter. […]
The percutaneous passage of the active ingredients is evaluated at the time of each sampling by measuring the cumulative quantity (μg) of active ingredient as a function of time.

[2] = known pharmacokinetics; Patent FR 2.776.191; cited from earlier work

| Structure (SMILES) | change of percutaneous penetration of estradiol caused by presence of nomegestrol acetate ([1]; gel G29-299 (NAc + E2) versus TX11323 (E2 only)) | change of percutaneous passage of nomegestrol acetate caused by presence of estradiol ([1]; gel G29-299 (NAc + E2) versus G29-287 (NAc only)) | plasmatic concentration of nomegestrol acetate for clinical effectiveness (endometrial effect through bleedings) [2] |
| --- | --- | --- | --- |
| C[C@]12CC[C@@H]3c4ccc(O)cc4CC[C@H]3[C@@H]1CC[C@@H]2O [estradiol, 17beta estradiol] | −51% |  |  |
| CC(=O)O[C@]1(C(C)=O)CC[C@H]2[C@@H]3C=C(C)C4=CC(=O)CC[C@@H]4[C@H]3CC[C@@]21C [nomegestrol acetate] |  | +39% | ≥ 0.7 ng/mL |
